According to publication PMC7088350 (Chemistry of Heterocyclic Compounds, 2014):
Values after ≈ are worked out from the molar mass of the structure shown. Values joined by “and” are separate entries in the source; they are usually repeats but may differ in a detail not shown here. Identical values can stand only once. Like-named read-outs stand apart in the source and are kept apart here.

Experiments:
[1] = tested on: Human Erythroleukemia Cells (HEL); experiment: Cytotoxicity; assay type: cell-based; conditions: morphological changes detected microscopically
[2] = tested on: Simplex herpes 1 TK-KOS ACVr virus; experiment: Antiviral activity; assay type: cell-based, Simplex herpes 1 virus; conditions: read-out: MIC50 Simplex herpes 1 TK-KOS ACVr virus
[3] = tested on: Simplex herpes 1 KOS virus; experiment: Antiviral activity; assay type: cell-based, Simplex herpes 1 virus; conditions: read-out: MIC50 Simplex herpes 1 KOS virus
[4] = tested on: Vesicular stomatitis virus; experiment: microbe, parasite or virus in culture; assay type: cell-based; conditions: read-out: MIC50 Vesicular stomatitis virus
Simplex herpes 2 G virus = experiment: Antiviral activity; assay type: cell-based, Simplex herpes 2 virus; conditions: read-out: MIC50 Simplex herpes 2 G virus
Influenza A H3N2 virus [5] = experiment: Antiviral activity; assay type: cell-based; conditions: for MIC50: Influenza A virus
Influenza A H1N1 virus [6] = experiment: Antiviral activity; assay type: cell-based; conditions: for MIC50: Influenza A virus
Influenza B virus [7] = experiment: Antiviral activity; assay type: cell-based; conditions: for MIC50: Influenza B virus
[8] = Cytotoxicity in MDCK cells; assay type: cell-based, Cocker Spaniel; conditions: dog
[9] = tested on: Cocker Spaniel Hepatocytes (MDCK); experiment: Cytotoxicity in MDCK cells; assay type: cell-based
[10] = tested on: Respiratory syncytial virus; conditions: literature data; cited from earlier work
[11] = tested on: Vesicular stomatitis virus; experiment: microbe, parasite or virus in culture; assay type: cell-based; conditions: read-out: MIC50 Vesicular stomatitis virus; remark: listed apart in the source
[12] = tested on: African Green Monkey Epithelial Kidney Cells (VERO); experiment: Cytotoxicity in VERO cells; assay type: cell-based
Feline herpes virus = experiment: Antiviral activity; assay type: cell-based; conditions: for MIC50: read-out: MIC50 Feline herpes virus
Parainfluenza 3 virus [13] = conditions: literature data; cited from earlier work
Sindbis virus = experiment: Antiviral activity; assay type: cell-based; conditions: read-out: MIC50 Sindbis virus
Influenza B virus [14] = conditions: literature; cited from earlier work
Influenza A H3N2 virus [15] = conditions: literature; cited from earlier work
Influenza A H1N1 virus [16] = conditions: previously reported; cited from earlier work
Parainfluenza 3 virus [17] = experiment: Antiviral activity; assay type: cell-based; conditions: read-out: MIC50 Parainfluenza 3 virus
[18] = tested on: Respiratory syncytial virus; experiment: Antiviral activity; assay type: cell-based; conditions: human respiratory syncytial virus, read-out: MIC50 Respiratory syncytial virus
[19] = tested on: Feline Kidney Cells (CRFK); experiment: Cytotoxicity in CRFK cells; assay type: cell-based
Reovirus 1 = experiment: Antiviral activity; assay type: cell-based; conditions: Mammalian orthoreovirus 1, read-out: MIC50 Reovirus 1
Feline coronavirus = experiment: Antiviral activity; assay type: cell-based; conditions: for MIC50: Alphacoronavirus 1, read-out: MIC50 Feline coronavirus; for MIC50 Feline coronavirus: CRFK cells
[20] = tested on: Cervical Cancer Cells (HeLa); experiment: Cytotoxicity in HeLa cells; assay type: cell-based
[21] = H3N2, read-out: MIC50 Influenza A H3N2 virus CA
[22] = H3N2, read-out: MIC50 Influenza A H3N2 virus VA
[23] = H1N1, read-out: MIC50 Influenza A H1N1 virus CA
[24] = H1N1, read-out: MIC50 Influenza A H1N1 virus VA
[25] = read-out: MIC50 Influenza B virus CA
[26] = read-out: MIC50 Influenza B virus VA
[27] = MDCK cells, colorimetric assessment
[28] = MDCK cells, visual assessment (microscopy)

| Compound | MCC (minimum cytotoxic concentration) [1] | MIC50 [2] | MIC50 [3] | MIC50 [4] | MIC50 (Simplex herpes 2 G virus) | MIC50 (Influenza A H3N2 virus [5]; [21]) | MIC50 (Influenza A H3N2 virus [5]; [22]) | MIC50 (Influenza A H1N1 virus [6]; [23]) | MIC50 (Influenza A H1N1 virus [6]; [24]) | MIC50 (Influenza B virus [7]; [25]) | CC50 [8] | MCC [9] | MIC50 [11] | MIC50 (Sindbis virus) | MIC50 (Parainfluenza 3 virus [17]) | MIC50 [18] | MIC50 (Influenza B virus [7]; [26]) | MIC50 (Reovirus 1) | MCC [20] | further results |
| --- | --- | --- | --- | --- | --- | --- | --- | --- | --- | --- | --- | --- | --- | --- | --- | --- | --- | --- | --- | --- |
| Nc1ccn(C[C@@H](CO)OCP(=O)(O)O)c(=O)n1 [Cidofovir] | >250 µM | 6 µM (≈ 1.68 µg/mL) | 6 µM (≈ 1.68 µg/mL) | > 250 µM | 2 µM (≈ 0.558 µg/mL) | – | – | – | – | – | – | – | – | – | – | – | – | – | – | – |
| CC(=O)N[C@H]1[C@H]([C@H](O)[C@H](O)CO)OC(C(=O)O)=C[C@@H]1N=C(N)N [Zanamivir] | – | – | – | – | – | 2 µM (≈ 0.665 µg/mL) | 4 µM (≈ 1.33 µg/mL) | 1.2 µM (≈ 0.399 µg/mL) | 0.8 µM (≈ 0.266 µg/mL) | 0.3 µM (≈ 0.0997 µg/mL) | > 100 µM | >100 µM | – | – | – | – | – | – | – | – |
| CCOC(=O)c1c(CSc2ccccc2)n(C)c2cc(Br)c(O)c(CN(C)C)c12.Cl.O [Umifenovir, Ethyl 6-bromo-4-(dimethylamino)methyl-5-hydroxy-1-methyl-2-(phenylsulfanyl)methyl-1 H -indole-3-carboxylate hydrochloride monohydrate] | 188 μM and 100 μg/ml | > 37 µM and > 20 µg/mL | > 37 µM and > 20 µg/mL | > 37 µM and > 20 µg/mL | > 37 µM and > 20 µg/mL | > 7.5 µM and > 4 µg/mL | > 7.5 µM and > 4 µg/mL | > 7.5 µM and > 4 µg/mL | > 7.5 µM and > 4 µg/mL | > 7.5 µM and > 4 µg/mL | 37 µM and 20 µg/mL | 19.6 μM and 10.4 μg/ml | > 7.5 µM and > 4 µg/mL | > 190 µM and > 100 µg/mL | > 190 µM and > 100 µg/mL | > 7.5 µM and > 4 µg/mL | > 7.5 µM and > 4 µg/mL | > 190 µM and > 100 µg/mL | 37 μM and 20 μg/ml | MIC50 respiratory syncytial virus [10]: 8.7 µg/mL; MCs [12]: > 190 μM and > 100 μg/ml; MIC50 (Feline herpes virus): > 7.5 µM and > 4 µg/mL; MIC50 parainfluenza 3 virus (Parainfluenza 3 virus [13]): 4.9 µg/mL; MIC50 influenza B virus replication (Influenza B virus [14]): 7.1 µg/mL; MIC50 H3N2 influenza A virus replication (Influenza A H3N2 virus [15]): 6.7 µg/mL; MIC50 influenza A H1N1 virus replication (Influenza A H1N1 virus [16]): 2.7 to 4.0 µg/mL; MCC [19]: 19.0 μM and 10.1 μg/ml; MCC ([19]; listed as umifenovir): 10.1 µg/mL; MIC50 (Feline coronavirus): > 7.5 µM and > 4 µg/mL; MCC ([9]; listed as umifenovir): 10.4 µg/mL |
| CC(N)C12CC3CC(CC(C3)C1)C2 (centres unmarked) [Remantadine] | – | – | – | – | – | – | – | – | – | – | – | >200 µM | – | – | – | – | – | – | – | MIC50 Influenza A H3N2 virus CA (Influenza A H3N2 virus [5]; [27]): 0.3 µM (≈ 0.0538 µg/mL); MIC50 Influenza A H3N2 virus VA (Influenza A H3N2 virus [5]; [28]): 0.3 µM (≈ 0.0538 µg/mL); MIC50 Influenza A H1N1 virus CA (Influenza A H1N1 virus [6]; [27]): 10.3 µM (≈ 1.85 µg/mL); MIC50 Influenza A H1N1 virus VA (Influenza A H1N1 virus [6]; [28]): 20 µM (≈ 3.59 µg/mL); MIC50 Influenza B virus CA (Influenza B virus [7]; [27]): >200 µM; MIC50 Influenza B virus VA (Influenza B virus [7]; [28]): >200 µM |
| Nc1nc(O)c2ncn(COC(CO)CO)c2n1 [Ganciclovir] | >100 µM | 0.2 µM (≈ 0.051 µg/mL) | 0.08 µM (≈ 0.0204 µg/mL) | > 100 µM | 0.03 µM (≈ 0.00766 µg/mL) | – | – | – | – | – | – | – | – | – | – | – | – | – | – | MIC50 (Feline coronavirus): > 100 µM |
| NC(=O)c1ncn([C@@H]2O[C@H](CO)[C@@H](O)[C@H]2O)n1 [Ribavirin] | – | – | – | – | – | 10.7 µM (≈ 2.61 µg/mL) | 9 µM (≈ 2.2 µg/mL) | 6.4 µM (≈ 1.56 µg/mL) | 9 µM (≈ 2.2 µg/mL) | 5.9 µM (≈ 1.44 µg/mL) | > 100 µM | >100 µM | 10 µM (≈ 2.44 µg/mL) | > 250 µM | 50 µM (≈ 12.2 µg/mL) | 10 µM (≈ 2.44 µg/mL) | 20 µM (≈ 4.88 µg/mL) | > 250 µM | >250 µM | – |
| CCOC(=O)c1c([C@@H]2C[C@H]2c2ccccc2)n(C)c2ccc(O)cc12 (relative stereo) [Compound 3, ethyl 5-hydroxy-1-methyl-2-(trans-2-phenylcyclopropyl)-1H-indole-3-carboxylate] | > 300 μM and > 100 μg/ml | > 300 µM and > 100 µg/mL | > 300 µM and > 100 µg/mL | > 300 µM and > 100 µg/mL | > 300 µM and > 100 µg/mL | > 12 µM and > 4 µg/mL | > 12 µM and > 4 µg/mL | > 12 µM and > 4 µg/mL | > 12 µM and > 4 µg/mL | > 12 µM and > 4 µg/mL | 59.6 µM and 20 µg/mL | – | > 300 µM and > 100 µg/mL | > 300 µM and > 100 µg/mL | > 300 µM and > 100 µg/mL | > 300 µM and > 100 µg/mL | > 12 µM and > 4 µg/mL | > 300 µM and > 100 µg/mL | > 300 μM and > 100 μg/ml | MIC50 (Feline herpes virus): > 300 µM and > 100 µg/mL; MIC50 (Feline coronavirus): > 300 µM and > 100 µg/mL |
| 3'-(1-Carboxy-1-phosphonoxyethoxy)uridinediphosphate-N-acetylglucosamine [UDA] | – | – | – | – | – | – | – | – | – | – | – | – | – | – | – | – | – | – | – | MIC50 Feline herpes virus (Feline herpes virus; CRFK cells): 0.8 µM; MIC50 Feline coronavirus (Feline coronavirus): 1.1 µM |
| Nc1ncnc2c1ncn2C[C@H](O)CO [(S)-DHPA, 9-((2S)-2,3-Dihydroxypropyl)adenine] | – | – | – | – | – | – | – | – | – | – | – | – | > 250 µM | > 250 µM | > 250 µM | > 250 µM | – | > 250 µM | >250 µM | – |
| O=c1[nH]c(=O)n([C@H]2C[C@H](O)[C@@H](CO)O2)cc1/C=C/Br [Brivudine] | >250 µM | 2 µM (≈ 0.666 µg/mL) | 0.04 µM (≈ 0.0133 µg/mL) | > 250 µM | 183 µM (≈ 61 µg/mL) | – | – | – | – | – | – | – | – | – | – | – | – | – | – | – |
| N[C@H]1C(C(=O)O)=CC=C[C@@H]1O (relative stereo) [HHA, (2S,3S)-trans-3-Hydroxy-2,3-dihydroanthranilic acid] | – | – | – | – | – | – | – | – | – | – | – | – | – | – | – | – | – | – | – | MIC50 Feline coronavirus (Feline coronavirus): 13.0 µM (≈ 2.02 µg/mL) |
| NC12CC3CC(CC(C3)C1)C2 [Amantadine] | – | – | – | – | – | 1.6 µM (≈ 0.242 µg/mL) | 4 µM (≈ 0.605 µg/mL) | 83.9 µM (≈ 12.7 µg/mL) | 89 µM (≈ 13.5 µg/mL) | > 200 µM | > 200 µM | >200 µM | – | – | – | – | > 200 µM | – | – | – |
| Nc1nc2c(ncn2COCCO)c(=O)[nH]1 [Acyclovir] | >250 µM | 2 µM (≈ 0.45 µg/mL) | 0.2 µM (≈ 0.045 µg/mL) | 250 µM (≈ 56.3 µg/mL) | 0.08 µM (≈ 0.018 µg/mL) | – | – | – | – | – | – | – | – | – | – | – | – | – | – | – |
